US20230103631A1, “PEPTIDES AS SELECTIVE GIP RECEPTOR AGONISTS” (Sanofi, priority 2020, published 2023)
*1 amine or outer side, *2 acyl side, *3 side chain or, on linkers, in order; H or OH if unused. Where a SMILES comes first, the peptide text is derived from it. Side-chain parts run from the residue outwards. [ ]: non-standard residue; d: D form. The star is where a group is joined. C20 diacid = O=C(O)CCCCCCCCCCCCCCCCCCC(=O)*; C18 diacid = O=C(O)CCCCCCCCCCCCCCCCC(=O)*; γGlu = O=C(O)[C@H](CCC(=O)[*:2])N[*:1]; AEEA = NCCOCCOCC(=O)O; Aib = CC(C)(N)C(=O)O

How the values were obtained:
[1] = target: human GLP-1 receptor (hGLP-1R) (Homo sapiens, UniProt P43220); test: cAMP HTRF assay, HEK-293 cell line over-expressing human GLP-1 receptor; assay type: cell-based; settings: HEK-293, cAMP, 0% HSA
Chain of human GLP-1 receptor (hGLP-1R) (P43220 24-463): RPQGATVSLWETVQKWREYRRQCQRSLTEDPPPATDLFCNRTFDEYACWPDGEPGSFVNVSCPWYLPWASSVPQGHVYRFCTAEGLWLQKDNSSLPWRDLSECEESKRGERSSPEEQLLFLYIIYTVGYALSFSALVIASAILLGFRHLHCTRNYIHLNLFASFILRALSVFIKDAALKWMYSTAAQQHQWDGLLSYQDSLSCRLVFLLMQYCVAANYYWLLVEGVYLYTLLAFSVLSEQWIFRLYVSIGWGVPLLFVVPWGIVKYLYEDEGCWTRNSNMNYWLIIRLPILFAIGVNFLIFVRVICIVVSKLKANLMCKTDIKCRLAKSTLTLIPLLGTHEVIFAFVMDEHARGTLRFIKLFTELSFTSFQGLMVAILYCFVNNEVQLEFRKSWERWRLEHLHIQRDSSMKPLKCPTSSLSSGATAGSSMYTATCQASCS
Description: Each vial contained 1.8 ml cells. The vials were slowly frozen to −80° C. in isopropanol, and then transferred in liquid nitrogen for storage.
Prior to their use, frozen cells were thawed quickly at 37° C. and washed (5 min at 900 rpm) with 20 ml cell buffer (1× HBSS; 20 mM HEPES, plus 0.1% HSA if indicated in Example conditions).
For measurement of cAMP generation, 5 μl cells (final 5000 cells/well) and 5 μl of test compound were added to a 384-well plate, followed by incubation for 30 min at room temperature.
The cAMP generated was determined using a kit from Cisbio Corp. based on HTRF (Homogenous Time Resolved Fluorescence). The cAMP assay was performed according to manufacturer's instructions (Cisbio).

[2] = target: T1, human GIP receptor (hGIPR) (Homo sapiens, UniProt P48546); test: Binding assay, displacement of [125I]GIP from HEK-293 membranes expressing GIPR; settings: [125I]GIP displacement
T1 sequence (P48546 22-466): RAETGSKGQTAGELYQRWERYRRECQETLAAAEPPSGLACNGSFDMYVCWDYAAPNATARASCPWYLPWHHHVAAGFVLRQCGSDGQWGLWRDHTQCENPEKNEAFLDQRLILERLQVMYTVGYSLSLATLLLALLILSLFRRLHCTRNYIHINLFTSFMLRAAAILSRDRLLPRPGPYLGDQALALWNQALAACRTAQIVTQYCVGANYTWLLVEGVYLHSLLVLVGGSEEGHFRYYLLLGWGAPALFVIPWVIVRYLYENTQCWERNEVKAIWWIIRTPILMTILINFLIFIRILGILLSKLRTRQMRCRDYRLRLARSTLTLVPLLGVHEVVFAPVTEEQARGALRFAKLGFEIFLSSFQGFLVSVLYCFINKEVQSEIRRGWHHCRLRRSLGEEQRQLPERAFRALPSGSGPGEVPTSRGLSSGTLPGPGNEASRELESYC
Description: HEK-293 cells recombinantly over-expressing GIPR or GLP-1R were grown to 50% confluency, washed with warm 1×PBS (Gibco) and detached in HEPES/EDTA-buffer (100 mM HEPES pH 7.5, 5 mM EDTA). Cells were harvested by centrifugation at 4° C. and 3000×g and the pellets were stored at −80° C. until further processing.
After thawing on ice, pellets were resuspended in HEPES/EDTA-buffer and homogenized on ice for 1 min using Ultra-Turray T25. After subsequent sonification the cell debris was removed by centrifugation at 1000×g and 4° C. Supernatants were then ultra-centrifuged at 100000×g and 4° C. under vacuum for 30 min. Pellets were resuspended in HEPES/EDTA/NaCl-buffer (20 mM HEPES, 1 mM EDTA, 150 mM NaCl; add 1 Complete Mini Protease inhibitor cocktail to 10 ml buffer) and protein content was determined via BCA-Protein assay.

[3] = ThT assay for the assessment of physical stability; assay type: physicochemical; settings: ThT buffer system A: 100 mM phosphate buffer pH 7.4; 3 mg/ml, 37° C.
Excerpt: Low physical stability of a peptide solution may lead to amyloid fibril formation, which is observed as well-ordered, thread-like macromolecular structures in the sample, which eventually may lead to gel formation. Thioflavin T (ThT) is widely used to visualize and quantify the presence of misfolded protein aggregates [Biancalana et al., Biochim. Biophys. Acta 2010, 1804(7), 1405]. […] Enzymol. 1999, 309, 274]. The time course for fibril formation often follows the characteristic shape of a sigmoidal curve and can be separated into three regions: a lag phase, a fast growth phase, and a plateau phase.
The typical fibril formation process starts with the lag phase in which the amount of partially folded peptide turned into fibrils is not significant enough to be detected. The lag-time corresponds to the time the critical mass of the nucleus is built. Afterwards, a drastic elongation phase follows, and fibril concentration increases rapidly.
Investigations were carried out to determine fibrillation tendencies under stress conditions by shaking at 37° C. within Fluoroskan Ascent FL or Fluoroskan Ascent.
For the tests in Fluoroskan Ascent (FL), 200 μl sample were placed into a 96-well mictrotiter plate PS, flat bottom, Greiner Fluotrac No. 655076. Plates were sealed with Scotch Tape (Qiagen). Samples were stressed by continuous cycles of 10 sec shaking at 960 rpm and 50 sec rest period at 37° C. The kinetic was monitored by measuring fluorescence intensity every 20 min.
Peptides were diluted in a buffer system to a final concentration of 3 mg/ml. 20 μl of a 10.1 mM ThT solution in H2O were added to 2 ml of peptide solution to receive a final concentration of 100 μM ThT. For each sample eight replicates were tested.
ThT buffer system A) 100 mM phosphate buffer pH 7.4
ThT buffer system B) 100 mM phosphate buffer pH 7.4, 2.7 mg/ml m-cresol
Lag time in hours (h) in Thioflavin T (ThT) assay of peptide samples was determined in ThT buffer system A as described in Methods.

[4] = Chemical stability assessment (relative purity loss by UHPLC-UV); assay type: physicochemical
Description: Purity of a peptide batch was determined through UHPLC/MS prior to chemical stability measurement. The target concentration was […] pure compound. Solutions from solid samples were prepared in the following buffer systems with a concentration of ˜300 μM compound based on the previously determined % purity:
Chemical stability buffer system A) 20 mM phosphate buffer pH 7.4,
Chemical stability buffer system B) 8 mM phosphate buffer pH 7.4, 14 mg/ml propylene glycol, 5.5 mg/ml phenol
Chemical stability buffer system C) 100 mM phosphate buffer pH 7.4, 2.7 mg/ml m-cresol
Prepared solutions were filtered through […] pore size and filled into sterilized glass containers under laminar flow conditions.
Glass containers were stored for 28 days at 5 and 40° C. After this time, the samples were centrifuged for 15 min at 2500 RCF. Then 1.5 μl of the undiluted supernatant were analysed with UHPLC-UV.
The chemical stability was rated through the relative loss of purity calculated by the equation:
[(purity after 28 days at 5° C.)−(purity after 28 days at 40° C.)]/(purity after 28 days at 5° C.)]*100%
The purity is calculated as
[(peak area peptide)/(total peak area)]*100%
The analytical methods used were Analytical UHPLC Method B or C.
Peptide samples were prepared in Chemical stability buffer system A or B and stability was assessed as described in Methods.

[5] = Chemical stability buffer system A: 20 mM phosphate buffer pH 7.4

SMILES	EC50 [1] [pM]	IC50 [2] [pM]	Increase in FI [3]	Lag time before increase [3] [h]	Relative purity loss over 28 days at 40° C. [4, 5] [%]	Relative purity loss over 28 days at 40° C. ([4]; Chemical stability buffer system B: 8 mM phosphate buffer pH 7.4, 14 mg/ml propylene glycol, 5.5 mg/ml phenol) [%]
CC[C@H](C)[C@H](NC(=O)[C@H](CCCNC(=N)N)NC(=O)[C@H](CC(=O)O)NC(=O)[C@H](CCCCNC(=O)COCCOCCNC(=O)COCCOCCNC(=O)CC[C@H](NC(=O)CCCCCCCCCCCCCCCCC(=O)O)C(=O)O)NC(=O)C(C)(C)NC(=O)[C@@H](NC(=O)[C@H](CO)NC(=O)[C@H](CC(C)C)NC(=O)[C@H](CC(=O)O)NC(=O)[C@H](CO)NC(=O)[C@@H](NC(=O)[C@H](Cc1ccccc1)NC(=O)[C@@H](NC(=O)CNC(=O)[C@H](CCC(=O)O)NC(=O)C(C)(C)NC(=O)[C@@H](N)Cc1ccc(O)cc1)[C@@H](C)O)[C@@H](C)CC)[C@@H](C)CC)C(=O)N[C@@H](Cc1c[nH]cn1)C(=O)N[C@@H](CCC(N)=O)C(=O)NC(C)(C)C(=O)N[C@@H](CCC(=O)O)C(=O)N[C@@H](Cc1ccccc1)C(=O)N[C@H](C(=O)N[C@@H](CCC(=O)O)C(=O)N[C@@H](Cc1c[nH]c2ccccc12)C(=O)N[C@@H](CC(C)C)C(=O)N[C@@H](CC(C)C)C(=O)N[C@@H](C)C(=O)N[C@@H](CCC(N)=O)C(=O)NCC(=O)N1CCC[C@H]1C(=O)N[C@@H](CO)C(=O)N[C@@H](CO)C(=O)NCC(=O)N[C@@H](C)C(=O)N1CCC[C@H]1C(=O)N1CCC[C@H]1C(=O)N1CCC[C@H]1C(=O)N[C@@H](CO)C(N)=O)[C@@H](C)CC [SEQ ID NO: 4, H2N-Y-Aib-E-G-T-F-I-S-D-I-S-I-Aib-K[{AEEA}2-gGlu-C18OH]-D-R-I-H-Q-Aib-E-F-I-E-W-I-L-A-Q-G-P-S-S-G-A-P-P-P-S-NH2] (H-Y[Aib]EGTFISDLSI[Aib]K([AEEA-AEEA-γGlu-C18 diacid])DRIHQ[Aib]EFIEWLLAQGPSSGAPPPS-NH2)	> 10000	200	no	>45	–	–
CC[C@H](C)[C@H](NC(=O)[C@H](CCCNC(=N)N)NC(=O)[C@H](CC(=O)O)NC(=O)[C@H](CCCCNC(=O)COCCOCCNC(=O)COCCOCCNC(=O)CC[C@H](NC(=O)CCCCCCCCCCCCCCCCCCC(=O)O)C(=O)O)NC(=O)C(C)(C)NC(=O)[C@@H](NC(=O)[C@H](CO)NC(=O)[C@H](CC(C)C)NC(=O)[C@H](CC(=O)O)NC(=O)[C@H](CO)NC(=O)[C@@H](NC(=O)[C@H](Cc1ccccc1)NC(=O)[C@@H](NC(=O)CNC(=O)[C@H](CCC(=O)O)NC(=O)C(C)(C)NC(=O)[C@@H](N)Cc1ccc(O)cc1)[C@@H](C)O)[C@@H](C)CC)[C@@H](C)CC)C(=O)N[C@@H](Cc1c[nH]cn1)C(=O)N[C@@H](CCC(N)=O)C(=O)NC(C)(C)C(=O)N[C@@H](CCC(=O)O)C(=O)N[C@@H](Cc1ccccc1)C(=O)N[C@H](C(=O)N[C@@H](CCC(=O)O)C(=O)N[C@@H](Cc1c[nH]c2ccccc12)C(=O)N[C@@H](CC(C)C)C(=O)N[C@@H](CC(C)C)C(=O)N[C@@H](C)C(=O)N[C@@H](CCC(N)=O)C(=O)NCC(=O)N1CCC[C@H]1C(=O)N[C@@H](CO)C(=O)N[C@@H](CO)C(=O)NCC(=O)N[C@@H](C)C(=O)N1CCC[C@H]1C(=O)N1CCC[C@H]1C(=O)N1CCC[C@H]1C(=O)N[C@@H](CO)C(N)=O)[C@@H](C)CC [SEQ ID NO: 7, H2N-Y-Aib-E-G-T-F-I-S-D-I-S-I-Aib-K[{AEEA}2-gGlu-C20OH]-D-R-I-H-Q-Aib-E-F-I-E-W-I-L-A-Q-G-P-S-S-G-A-P-P-P-S-NH2] (H-Y[Aib]EGTFISDLSI[Aib]K([AEEA-AEEA-γGlu-C20 diacid])DRIHQ[Aib]EFIEWLLAQGPSSGAPPPS-NH2)	> 10000	200	–	–	4.5	–
CC[C@H](C)[C@H](NC(=O)[C@H](Cc1ccccc1)NC(=O)[C@H](CCC(=O)O)NC(=O)[C@H](CCC(=O)O)NC(=O)[C@H](CCC(N)=O)NC(=O)[C@H](Cc1c[nH]cn1)NC(=O)[C@@H](NC(=O)[C@H](CCCNC(=N)N)NC(=O)[C@H](CC(=O)O)NC(=O)[C@H](CCCCNC(=O)COCCOCCNC(=O)COCCOCCNC(=O)CC[C@H](NC(=O)CCCCCCCCCCCCCCCCC(=O)O)C(=O)O)NC(=O)C(C)(C)NC(=O)[C@@H](NC(=O)[C@H](CO)NC(=O)[C@H](CC(C)C)NC(=O)[C@H](CC(=O)O)NC(=O)[C@H](CO)NC(=O)[C@@H](NC(=O)[C@H](Cc1ccccc1)NC(=O)[C@@H](NC(=O)CNC(=O)[C@H](CCC(=O)O)NC(=O)C(C)(C)NC(=O)[C@@H](N)Cc1ccc(O)cc1)[C@@H](C)O)[C@@H](C)CC)[C@@H](C)CC)[C@@H](C)CC)C(=O)N[C@@H](CCC(=O)O)C(=O)N[C@@H](Cc1c[nH]c2ccccc12)C(=O)N[C@@H](CC(C)C)C(=O)N[C@@H](CC(C)C)C(=O)N[C@@H](C)C(=O)N[C@@H](CCC(N)=O)C(=O)NCC(=O)N1CCC[C@H]1C(=O)N[C@@H](CO)C(=O)N[C@@H](CO)C(=O)NCC(=O)N[C@@H](C)C(=O)N1CCC[C@H]1C(=O)N1CCC[C@H]1C(=O)N1CCC[C@H]1C(=O)N[C@@H](CO)C(N)=O [SEQ ID NO: 9, H2N-Y-Aib-E-G-T-F-I-S-D-I-S-I-Aib-K[{AEEA}2-gGlu-C18OH]-DRIHQEEFIEWILAQGPSSGAPPPS-NH2] (H-Y[Aib]EGTFISDLSI[Aib]K([AEEA-AEEA-γGlu-C18 diacid])DRIHQEEFIEWLLAQGPSSGAPPPS-NH2)	> 10000	–	no	>45	6.9	8.2
